Test results from ChEMBL document CHEMBL1909046, “DrugMatrix in vitro pharmacology data”.

How the values were obtained:
[1] = target: Prostaglandin G/H synthase 1 (Homo sapiens, UniProt P23219); experiment: biochemical; assay type: tissue-based, Platelet; conditions: platelet;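 also: inhibition of COX-1 enzyme activity, with arachidonic acid supplied as substrate; in other assays of this panel Not Active means under 50% inhibition at 10 µM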
[2] = target: C-C chemokine receptor type 2 (Homo sapiens, UniProt P41597); assay type: cell membranes, CHO-K1, Membrane; conditions: cho-k1; also: in other assays of this panel Not Active means under 50% inhibition at 10 µM
[3] = DRUGMATRIX: Calcium Channel Type L, Benzothiazepine radioligand binding (ligand: [3H] Diltiazem); assay type: cell membranes, Rattus norvegicus, Wistar, Brain, Membrane; conditions: Not Active = under 50% inhibition at 10 µM
[4] = DRUGMATRIX: Glutamate, NMDA, Phencyclidine radioligand binding (ligand: [3H] TCP); assay type: cell membranes, Rattus norvegicus, Wistar, Cerebral cortex, Membrane; conditions: Not Active = under 50% inhibition at 10 µM
[5] = target: T1, Muscarinic acetylcholine receptor M5 (Homo sapiens, UniProt P08912); assay type: cell membranes, CHO-K1, Membrane; conditions: cho-k1; also: in other assays of this panel Not Active means under 50% inhibition at 10 µM
T1 sequence (P08912 whole entry): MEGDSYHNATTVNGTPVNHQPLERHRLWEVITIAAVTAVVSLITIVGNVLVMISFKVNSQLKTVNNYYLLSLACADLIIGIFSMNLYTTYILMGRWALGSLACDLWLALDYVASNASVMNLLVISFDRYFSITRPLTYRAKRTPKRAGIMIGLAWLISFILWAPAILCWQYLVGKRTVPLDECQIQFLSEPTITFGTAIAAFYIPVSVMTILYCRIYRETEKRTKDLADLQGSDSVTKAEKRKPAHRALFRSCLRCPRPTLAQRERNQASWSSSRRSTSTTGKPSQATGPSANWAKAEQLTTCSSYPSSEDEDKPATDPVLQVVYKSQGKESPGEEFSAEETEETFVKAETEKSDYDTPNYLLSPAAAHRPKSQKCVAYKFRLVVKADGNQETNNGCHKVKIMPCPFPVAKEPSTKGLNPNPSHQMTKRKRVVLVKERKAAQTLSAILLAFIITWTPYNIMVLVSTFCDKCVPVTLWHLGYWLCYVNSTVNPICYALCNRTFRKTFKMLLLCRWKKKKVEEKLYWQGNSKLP

[6] = DRUGMATRIX: Platelet-Derived Growth Factor (PDGF) radioligand binding (ligand: [125I] PDGF); assay type: cell-based; conditions: nih3t3; Not Active = under 50% inhibition at 10 µM
[7] = target: Beta-3 adrenergic receptor (Homo sapiens, UniProt P13945); experiment: DRUGMATRIX: Adrenergic beta3 radioligand binding (ligand: [125I] Cyanopindolol); assay type: cell membranes, HEK293, Membrane; conditions: hek293; Not Active = under 50% inhibition at 10 µM
[8] = target: T2, Angiotensin-converting enzyme (Oryctolagus cuniculus, UniProt P12822); experiment: biochemical; assay type: tissue-based, Lung;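 also: enzymatic inhibition of angiotensin-converting enzyme measured with FAPGG as the substrate; in other assays of this panel Not Active means under 50% inhibition at 10 µM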
T2 sequence (P12822 whole entry): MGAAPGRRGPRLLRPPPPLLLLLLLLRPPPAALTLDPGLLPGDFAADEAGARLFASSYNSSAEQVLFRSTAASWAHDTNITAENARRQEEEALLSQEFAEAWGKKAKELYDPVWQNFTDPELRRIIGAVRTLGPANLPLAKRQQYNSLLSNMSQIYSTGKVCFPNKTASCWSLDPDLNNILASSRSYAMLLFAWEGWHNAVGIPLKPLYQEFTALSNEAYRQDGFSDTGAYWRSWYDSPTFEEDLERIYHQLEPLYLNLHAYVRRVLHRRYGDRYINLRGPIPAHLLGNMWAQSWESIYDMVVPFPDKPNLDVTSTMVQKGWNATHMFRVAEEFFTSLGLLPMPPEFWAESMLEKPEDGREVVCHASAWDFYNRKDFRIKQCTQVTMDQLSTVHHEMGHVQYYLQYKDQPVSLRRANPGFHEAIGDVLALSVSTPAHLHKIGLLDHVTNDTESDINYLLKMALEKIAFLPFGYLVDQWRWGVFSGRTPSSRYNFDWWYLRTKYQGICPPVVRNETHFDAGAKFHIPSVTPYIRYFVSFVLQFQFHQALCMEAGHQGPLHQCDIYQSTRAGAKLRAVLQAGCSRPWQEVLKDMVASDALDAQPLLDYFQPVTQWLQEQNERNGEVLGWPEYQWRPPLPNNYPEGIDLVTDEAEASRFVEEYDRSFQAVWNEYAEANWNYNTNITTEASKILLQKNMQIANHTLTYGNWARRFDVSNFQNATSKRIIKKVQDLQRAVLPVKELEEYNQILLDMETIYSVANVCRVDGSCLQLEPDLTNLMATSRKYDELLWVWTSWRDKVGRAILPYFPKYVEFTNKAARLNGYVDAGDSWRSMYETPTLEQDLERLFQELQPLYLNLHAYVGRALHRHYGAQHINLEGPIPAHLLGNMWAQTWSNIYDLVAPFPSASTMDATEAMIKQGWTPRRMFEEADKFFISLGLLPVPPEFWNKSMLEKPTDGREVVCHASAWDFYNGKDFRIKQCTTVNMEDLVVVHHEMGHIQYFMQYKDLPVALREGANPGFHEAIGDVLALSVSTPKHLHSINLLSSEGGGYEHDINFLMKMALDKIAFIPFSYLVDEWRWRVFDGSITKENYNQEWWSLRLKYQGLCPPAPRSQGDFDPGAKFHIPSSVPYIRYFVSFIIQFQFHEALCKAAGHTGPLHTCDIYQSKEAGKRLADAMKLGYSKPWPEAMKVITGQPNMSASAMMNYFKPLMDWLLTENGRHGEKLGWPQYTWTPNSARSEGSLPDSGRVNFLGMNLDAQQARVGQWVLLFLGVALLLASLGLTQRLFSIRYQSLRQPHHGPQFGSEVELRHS

Cathepsin G = target: T3, Cathepsin G (Homo sapiens, UniProt P08311); assay type: tissue-based; conditions: neutrophil
T3 sequence (P08311 whole entry): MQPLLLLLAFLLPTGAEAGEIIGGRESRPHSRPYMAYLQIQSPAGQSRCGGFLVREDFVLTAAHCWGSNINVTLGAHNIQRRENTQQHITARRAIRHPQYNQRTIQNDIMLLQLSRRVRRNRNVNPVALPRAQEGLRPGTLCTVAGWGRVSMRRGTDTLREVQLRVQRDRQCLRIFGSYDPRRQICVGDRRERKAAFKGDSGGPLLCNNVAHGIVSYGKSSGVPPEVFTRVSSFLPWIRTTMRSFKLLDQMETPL

[9] = target: T4, C-X-C chemokine receptor type 1 (Homo sapiens, UniProt P25024); also: in other assays of this panel Not Active means under 50% inhibition at 10 µM
T4 sequence (P25024 whole entry): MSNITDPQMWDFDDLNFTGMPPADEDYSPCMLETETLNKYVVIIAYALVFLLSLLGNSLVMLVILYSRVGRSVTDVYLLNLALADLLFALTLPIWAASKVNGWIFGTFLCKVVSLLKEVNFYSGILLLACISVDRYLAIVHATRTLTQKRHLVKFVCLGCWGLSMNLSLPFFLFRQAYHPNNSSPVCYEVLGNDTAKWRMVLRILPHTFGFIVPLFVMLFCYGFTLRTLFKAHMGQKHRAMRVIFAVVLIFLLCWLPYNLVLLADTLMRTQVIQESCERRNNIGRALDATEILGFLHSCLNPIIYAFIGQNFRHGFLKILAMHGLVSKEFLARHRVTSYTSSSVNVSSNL

Beta-3 adrenergic receptor, sequence (P13945 whole entry): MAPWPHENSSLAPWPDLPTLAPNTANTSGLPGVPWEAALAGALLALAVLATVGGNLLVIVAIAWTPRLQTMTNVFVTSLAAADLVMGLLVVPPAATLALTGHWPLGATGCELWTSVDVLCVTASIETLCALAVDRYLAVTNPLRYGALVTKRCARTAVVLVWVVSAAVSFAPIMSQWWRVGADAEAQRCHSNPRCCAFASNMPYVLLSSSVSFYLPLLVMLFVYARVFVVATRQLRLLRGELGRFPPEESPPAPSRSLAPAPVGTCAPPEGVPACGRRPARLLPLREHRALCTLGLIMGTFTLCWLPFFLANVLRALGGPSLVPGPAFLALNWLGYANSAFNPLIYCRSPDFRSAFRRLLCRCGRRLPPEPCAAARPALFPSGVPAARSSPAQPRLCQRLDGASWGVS
C-C chemokine receptor type 2, sequence (P41597 whole entry): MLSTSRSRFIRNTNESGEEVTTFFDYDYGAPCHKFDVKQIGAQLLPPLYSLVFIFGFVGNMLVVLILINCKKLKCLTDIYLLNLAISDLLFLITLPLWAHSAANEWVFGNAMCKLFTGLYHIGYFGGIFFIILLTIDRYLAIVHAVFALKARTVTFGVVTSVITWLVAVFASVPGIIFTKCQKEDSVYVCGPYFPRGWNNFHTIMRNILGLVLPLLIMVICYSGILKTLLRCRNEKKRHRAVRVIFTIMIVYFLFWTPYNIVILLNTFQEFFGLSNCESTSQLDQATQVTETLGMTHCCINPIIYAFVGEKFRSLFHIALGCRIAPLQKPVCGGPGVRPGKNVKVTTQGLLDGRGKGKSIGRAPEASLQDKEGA
Prostaglandin G/H synthase 1, sequence (P23219 whole entry): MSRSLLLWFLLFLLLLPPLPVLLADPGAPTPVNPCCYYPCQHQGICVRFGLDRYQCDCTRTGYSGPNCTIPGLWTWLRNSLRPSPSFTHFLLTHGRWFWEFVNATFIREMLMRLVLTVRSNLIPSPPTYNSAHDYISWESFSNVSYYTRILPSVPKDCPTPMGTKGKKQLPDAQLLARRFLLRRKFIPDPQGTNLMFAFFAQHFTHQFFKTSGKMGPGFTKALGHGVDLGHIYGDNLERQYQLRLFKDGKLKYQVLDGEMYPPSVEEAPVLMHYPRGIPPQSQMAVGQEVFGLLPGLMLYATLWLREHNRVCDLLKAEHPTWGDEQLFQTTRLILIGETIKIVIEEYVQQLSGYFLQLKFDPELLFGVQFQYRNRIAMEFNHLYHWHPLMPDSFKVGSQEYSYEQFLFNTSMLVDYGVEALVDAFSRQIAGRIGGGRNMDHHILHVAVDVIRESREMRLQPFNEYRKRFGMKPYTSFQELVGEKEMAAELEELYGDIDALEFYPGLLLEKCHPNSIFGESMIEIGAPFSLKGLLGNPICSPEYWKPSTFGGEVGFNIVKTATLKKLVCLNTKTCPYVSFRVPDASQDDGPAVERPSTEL

Cc1cc(NS(=O)(=O)c2ccc(N)cc2)no1 [SULFAMETHOXAZOLE]
Not Active: IC50 [1] | IC50 [2] | IC50 [3] | Ki [3] | IC50 [4] | Ki [4] | IC50 [5] | IC50 [6] | Ki [6] | IC50 [7] | IC50 [8] | IC50 (Cathepsin G) | IC50 [9]

Nc1ccc(S(N)(=O)=O)cc1 [SULFANILAMIDE]
Not Active: IC50 [1] | IC50 [2] | IC50 [3] | Ki [3] | IC50 [4] | Ki [4] | IC50 [5] | IC50 [6] | Ki [6] | IC50 [7] | IC50 [8] | IC50 (Cathepsin G) | IC50 [9]

Nc1ccc(S(=O)(=O)Nc2ccnn2-c2ccccc2)cc1 [SULFAPHENAZOLE]
Not Active: IC50 [1] | IC50 [2] | IC50 [3] | Ki [3] | IC50 [4] | Ki [4] | IC50 [5] | IC50 [6] | Ki [6] | IC50 [7] | IC50 [8] | IC50 (Cathepsin G) | IC50 [9]

C=CC[C@@H]1/C=C(\C)C[C@H](C)C[C@H](OC)[C@H]2O[C@@](O)(C(=O)C(=O)N3CCCC[C@H]3C(=O)O[C@H](/C(C)=C/[C@@H]3CC[C@@H](O)[C@H](OC)C3)[C@H](C)[C@@H](O)CC1=O)[C@H](C)C[C@@H]2OC [TACROLIMUS ANHYDROUS]
Not Active: IC50 [1] | IC50 [2] | IC50 [3] | Ki [3] | IC50 [4] | Ki [4] | IC50 [5] | IC50 [6] | Ki [6] | IC50 [7] | IC50 [8] | IC50 (Cathepsin G) | IC50 [9]

CC1CN(c2cc3c(cc2F)c(=O)c(C(=O)O)cn3-c2ccc(F)cc2F)CCN1 (centres undefined) [TEMAFLOXACIN]
Not Active: IC50 [1] | IC50 [2] | IC50 [3] | Ki [3] | IC50 [4] | Ki [4] | IC50 [5] | IC50 [6] | Ki [6] | IC50 [7] | IC50 [8] | IC50 (Cathepsin G) | IC50 [9]

CC(C)(C)NCC(O)c1cc(O)cc(O)c1 (centres undefined) [TERBUTALINE]
Not Active: IC50 [1] | IC50 [2] | IC50 [3] | Ki [3] | IC50 [4] | Ki [4] | IC50 [5] | IC50 [6] | Ki [6] | IC50 [7] | IC50 [8] | IC50 (Cathepsin G) | IC50 [9]

CN(C)[C@@H]1C(O)=C(C(N)=O)C(=O)[C@@]2(O)C(O)=C3C(=O)c4c(O)cccc4[C@@](C)(O)[C@H]3C[C@@H]12 [TETRACYCLINE]
Not Active: IC50 [1] | IC50 [2] | IC50 [3] | Ki [3] | IC50 [4] | Ki [4] | IC50 [5] | IC50 [6] | Ki [6] | IC50 [7] | IC50 [8] | IC50 (Cathepsin G) | IC50 [9]

c1ccc2[nH]c(-c3cscn3)nc2c1 [THIABENDAZOLE]
Not Active: IC50 [1] | IC50 [2] | IC50 [3] | Ki [3] | IC50 [4] | Ki [4] | IC50 [5] | IC50 [6] | Ki [6] | IC50 [7] | IC50 [8] | IC50 (Cathepsin G) | IC50 [9]
